Tested on: Detoxification protein genes
Assay: DNA chip mRNA expression in yeast, detoxification protein genes (Table 8)
Type: cell-based, Saccharomyces cerevisiae S288C
Outline: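 Chemical exposure: 2 h, log-phase S. cerevisiae S288C, YPD, 25° C., dose set to inhibit growth without death. Profiling: mRNA labeled by reverse transcription with Cy3- or Cy5-dUTP, hybridized to whole-genome array. Output: fluorescence ratio against untreated culture.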

SMILES: N#Cc1c(Cl)c(Cl)c(Cl)c(C#N)c1Cl [(9), 2,4,5,6-tetrachloro-1,3-benzenedicarbonitrile]
- The level of expressed mRNA in the presence of chemical substance/The level of expressed mRNA in the absence of chemical substance (yeast gene YBL064C): 4.5
- The level of expressed mRNA in the presence of chemical substance/The level of expressed mRNA in the absence of chemical substance (yeast gene YBR008C): 54.6
- The level of expressed mRNA in the presence of chemical substance/The level of expressed mRNA in the absence of chemical substance (yeast gene YBR145W): 0.1
- The level of expressed mRNA in the presence of chemical substance/The level of expressed mRNA in the absence of chemical substance (yeast gene YBR244W): 1.4
- The level of expressed mRNA in the presence of chemical substance/The level of expressed mRNA in the absence of chemical substance (yeast gene YBR293W): 5.5
- The level of expressed mRNA in the presence of chemical substance/The level of expressed mRNA in the absence of chemical substance (yeast gene YCL035C): 1.9
- The level of expressed mRNA in the presence of chemical substance/The level of expressed mRNA in the absence of chemical substance (yeast gene YCL069W): 1.2
- The level of expressed mRNA in the presence of chemical substance/The level of expressed mRNA in the absence of chemical substance (yeast gene YCR083W): 1.8
- The level of expressed mRNA in the presence of chemical substance/The level of expressed mRNA in the absence of chemical substance (yeast gene YDL100C): 5.4
- The level of expressed mRNA in the presence of chemical substance/The level of expressed mRNA in the absence of chemical substance (yeast gene YDL168W): 8.2
- The level of expressed mRNA in the presence of chemical substance/The level of expressed mRNA in the absence of chemical substance (yeast gene YDR256C): 5.2
- The level of expressed mRNA in the presence of chemical substance/The level of expressed mRNA in the absence of chemical substance (yeast gene YDR453C): 4.5
- The level of expressed mRNA in the presence of chemical substance/The level of expressed mRNA in the absence of chemical substance (yeast gene YDR513W): 4.6
- The level of expressed mRNA in the presence of chemical substance/The level of expressed mRNA in the absence of chemical substance (yeast gene YDR538W): 0.3
- The level of expressed mRNA in the presence of chemical substance/The level of expressed mRNA in the absence of chemical substance (yeast gene YEL027W): 0.9
- The level of expressed mRNA in the presence of chemical substance/The level of expressed mRNA in the absence of chemical substance (yeast gene YEL065W): 0.1
- The level of expressed mRNA in the presence of chemical substance/The level of expressed mRNA in the absence of chemical substance (yeast gene YER185W): 2.9
- The level of expressed mRNA in the presence of chemical substance/The level of expressed mRNA in the absence of chemical substance (yeast gene YFL050C): 0.5
- The level of expressed mRNA in the presence of chemical substance/The level of expressed mRNA in the absence of chemical substance (yeast gene YGL013C): 3.0
- The level of expressed mRNA in the presence of chemical substance/The level of expressed mRNA in the absence of chemical substance (yeast gene YGL254W): 3.1
- The level of expressed mRNA in the presence of chemical substance/The level of expressed mRNA in the absence of chemical substance (yeast gene YGR088W): 1.5
- The level of expressed mRNA in the presence of chemical substance/The level of expressed mRNA in the absence of chemical substance (yeast gene YGR138C): 0.5
- The level of expressed mRNA in the presence of chemical substance/The level of expressed mRNA in the absence of chemical substance (yeast gene YGR197C): 16.7
- The level of expressed mRNA in the presence of chemical substance/The level of expressed mRNA in the absence of chemical substance (yeast gene YGR209C): 2.4
- The level of expressed mRNA in the presence of chemical substance/The level of expressed mRNA in the absence of chemical substance (yeast gene YGR224W): 0.9
- The level of expressed mRNA in the presence of chemical substance/The level of expressed mRNA in the absence of chemical substance (yeast gene YHL040C): 1.1
- The level of expressed mRNA in the presence of chemical substance/The level of expressed mRNA in the absence of chemical substance (yeast gene YHL047C): 1.2
- The level of expressed mRNA in the presence of chemical substance/The level of expressed mRNA in the absence of chemical substance (yeast gene YHR008C): 1.7
- The level of expressed mRNA in the presence of chemical substance/The level of expressed mRNA in the absence of chemical substance (yeast gene YHR048W): 4.5
- The level of expressed mRNA in the presence of chemical substance/The level of expressed mRNA in the absence of chemical substance (yeast gene YHR053C): 4.5
- The level of expressed mRNA in the presence of chemical substance/The level of expressed mRNA in the absence of chemical substance (yeast gene YHR055C): 3.9
- The level of expressed mRNA in the presence of chemical substance/The level of expressed mRNA in the absence of chemical substance (yeast gene YIR002C): 1.7
- The level of expressed mRNA in the presence of chemical substance/The level of expressed mRNA in the absence of chemical substance (yeast gene YIR038C): 4.6
- The level of expressed mRNA in the presence of chemical substance/The level of expressed mRNA in the absence of chemical substance (yeast gene YJL101C): 3.1
- The level of expressed mRNA in the presence of chemical substance/The level of expressed mRNA in the absence of chemical substance (yeast gene YJR104C): 1.9
- The level of expressed mRNA in the presence of chemical substance/The level of expressed mRNA in the absence of chemical substance (yeast gene YKL026C): 7.5
- The level of expressed mRNA in the presence of chemical substance/The level of expressed mRNA in the absence of chemical substance (yeast gene YKL064W): 2.4
- The level of expressed mRNA in the presence of chemical substance/The level of expressed mRNA in the absence of chemical substance (yeast gene YKR066C): 0.7
- The level of expressed mRNA in the presence of chemical substance/The level of expressed mRNA in the absence of chemical substance (yeast gene YKR105C): 1.0
- The level of expressed mRNA in the presence of chemical substance/The level of expressed mRNA in the absence of chemical substance (yeast gene YKR106W): 10.5
- The level of expressed mRNA in the presence of chemical substance/The level of expressed mRNA in the absence of chemical substance (yeast gene YLL028W): 1.2
- The level of expressed mRNA in the presence of chemical substance/The level of expressed mRNA in the absence of chemical substance (yeast gene YLL057C): 121.8
- The level of expressed mRNA in the presence of chemical substance/The level of expressed mRNA in the absence of chemical substance (yeast gene YLL060C): 13.0
- The level of expressed mRNA in the presence of chemical substance/The level of expressed mRNA in the absence of chemical substance (yeast gene YLR043C): 2.8
- The level of expressed mRNA in the presence of chemical substance/The level of expressed mRNA in the absence of chemical substance (yeast gene YLR046C): 1.0
- The level of expressed mRNA in the presence of chemical substance/The level of expressed mRNA in the absence of chemical substance (yeast gene YML028W): 0.8
- The level of expressed mRNA in the presence of chemical substance/The level of expressed mRNA in the absence of chemical substance (yeast gene YML116W): 1.4
- The level of expressed mRNA in the presence of chemical substance/The level of expressed mRNA in the absence of chemical substance (yeast gene YMR015C): 0.1
- The level of expressed mRNA in the presence of chemical substance/The level of expressed mRNA in the absence of chemical substance (yeast gene YMR038C): 2.4
- The level of expressed mRNA in the presence of chemical substance/The level of expressed mRNA in the absence of chemical substance (yeast gene YNL239W): 2.5
- The level of expressed mRNA in the presence of chemical substance/The level of expressed mRNA in the absence of chemical substance (yeast gene YNL241C): 3.4
- The level of expressed mRNA in the presence of chemical substance/The level of expressed mRNA in the absence of chemical substance (yeast gene YNL259C): 1.6
- The level of expressed mRNA in the presence of chemical substance/The level of expressed mRNA in the absence of chemical substance (yeast gene YOL158C): 1.7
- The level of expressed mRNA in the presence of chemical substance/The level of expressed mRNA in the absence of chemical substance (yeast gene YOR031W): 0.7
- The level of expressed mRNA in the presence of chemical substance/The level of expressed mRNA in the absence of chemical substance (yeast gene YOR153W): 3.2
- The level of expressed mRNA in the presence of chemical substance/The level of expressed mRNA in the absence of chemical substance (yeast gene YOR247W): 0.1
- The level of expressed mRNA in the presence of chemical substance/The level of expressed mRNA in the absence of chemical substance (yeast gene YOR251C): 0.8
- The level of expressed mRNA in the presence of chemical substance/The level of expressed mRNA in the absence of chemical substance (yeast gene YOR273C): 0.6
- The level of expressed mRNA in the presence of chemical substance/The level of expressed mRNA in the absence of chemical substance (yeast gene YPL163C): 0.1
- The level of expressed mRNA in the presence of chemical substance/The level of expressed mRNA in the absence of chemical substance (yeast gene YPR200C): 4.7

From patent publication US8192962B2, “Processes for detecting toxic substances” (Daikin Industries, Ltd., priority 2001, dated 2012)
